# Entries after “also recorded” stand apart in the source; their conditions may differ.
# Legend:
# [1] = tested on: Hh pathway; test: Shh signaling assay in NIH3T3 Shh-LIGHT Z3 cells (Gli luciferase reporter); assay type: cell-based
# Procedure: (§1) Shh signaling assays. Shh signaling assays were carried out as described^16 in primary fibroblasts lacking functional Dhcr7, Sc5d or Ptch and in NIH3T3 fibroblasts. Dhcr7^−/− and Dhcr7^+/− MEFs were generated from embryonic day-9 mutant mice and Sc5h1 and Sc5d^−/− and Sc5d^+/− MEFs from embryonic day-14.5 mutant mice. We generated a reporter construct with firefly luciferase and Gli (pGL3-8xGli-luciferase) by cloning eight tandem Gli-binding sites and a lens crystallin promoter from the 8xGli-BS Luc construct^22 into the pGL3-Basic vector (Promega). We determined relative Hh pathway activity in Dhcr7^−/−, Dhcr7^+/−, Sc5d^+/+ and Sc5d^+/− MEFs from the expression of transiently transfected pGL3-8xGli-luciferase and control Renilla luciferase (pRL-SV40; Promega) vectors. In Ptch^−/− MEFs, we normalized β-galactosidase activity expressed under the control of the Ptch promoter for protein levels to determine relative Hh pathway activity. In the NIH3T3 cell clone Shh-LIGHT Z3, we normalized 8xGli-BS luciferase activity for β-galactosidase activity from stably transfected vectors (8xGli-BS Luc^22 and piZ-lacZ). We established clonal sublines of Shh-LIGHT Z3 by cotransfecting either Smo tagged with Myc epitope or SmoA1 with vector encoding G418 resistance (pGT; Invivogen). All transfections were done with Fugene 6. We carried out cyclodextrin treatments for 30 min with methyl-β-cyclodextrin (Sigma) dissolved in Dulbecco's modified Eagle medium, preceded and followed by two washes with phosphate-buffered saline. Fetal bovine serum was depleted of lipids as described^23. We purchased compactin as an active sodium salt form of mevastatin (Biomol) and dissolved it in dimethylsulfoxide.
# (§2) The combination of transient cyclodextrin treatment followed by inhibition of cholesterol synthesis blocked the response to ShhNp, whereas neither treatment alone did so. FIG. 4c, Hh path way inhibition persisted for 72 h after cyclodextrin treatment. The 3-d recovery period was intended to allow replenishment of non-sterol cellular components depleted by transient cyclodextrin treatment while maintaining sterol depletion with HMG-CoA reductase inhibition by compactin. FIG. 4d, Total cellular sterols from parallel cultures of NIH3T3 (c, 36 h), Dhcr7^−/− and Sc5d^−/− (FIG. 3b) MEFs were determined by gas chromatography-mass spectrometry analysis of extracted lipids and plotted against the relative Shh pathway activity. Bars represent one standard error (quadruplicate wells).
# [2] = tested on: Hh pathway; test: Shh signaling assay in Dhcr7 and Sc5d MEFs (Hh-responsive firefly luciferase reporter); assay type: cell-based, mouse
# Procedure: Shh signaling assays. Shh signaling assays were carried out as described^16 in primary fibroblasts lacking functional Dhcr7, Sc5d or Ptch and in NIH3T3 fibroblasts. Dhcr7^−/− and Dhcr7^+/− MEFs were generated from embryonic day-9 mutant mice and Sc5h1 and Sc5d^−/− and Sc5d^+/− MEFs from embryonic day-14.5 mutant mice. We generated a reporter construct with firefly luciferase and Gli (pGL3-8xGli-luciferase) by cloning eight tandem Gli-binding sites and a lens crystallin promoter from the 8xGli-BS Luc construct^22 into the pGL3-Basic vector (Promega). We determined relative Hh pathway activity in Dhcr7^−/−, Dhcr7^+/−, Sc5d^+/+ and Sc5d^+/− MEFs from the expression of transiently transfected pGL3-8xGli-luciferase and control Renilla luciferase (pRL-SV40; Promega) vectors. […]
# The effect of cholesterol depletion on responsiveness of Dhcr7^+/− (gray bars), Dhcr7^−/− (maroon bars), Sc5d^+/− (gray bars), and Sc5d^−/− (green bars) MEFs to Shh signaling was assayed by transfection with a Hh-responsive firefly luciferase reporter and treatment with purified ShhNp (10 nM). […] For each culture condition, normalized firefly luciferase activity from control and ShhNp treated cells was used to calculate the relative induction, expressed as a percentage of the Shh induction achieved in MEFs cultured in full serum. […]
# [3] = tested on: chick neural-plate explants; test: Chick neural-plate explants induced with ShhN, stained for HNF3β or lSL1; assay type: cell-based
# Procedure: (§3) Chick embryos. Methyl-β-cyclodextrin (200 μl of a 10% w/v solution in L-15 medium (Sigma and Life Technologies)) was applied to windowed, fertile chick eggs (White Leghorn) after 15 h of incubation. For an average egg volume of 50 ml, the final concentration of cyclodextrin was 375 μM. After 4 d of further incubation, we processed the embryos for scanning electron microscopy. The neural plate and epidermal ectoderm was dissected from stage 9-10 chick embryos, cultured them in collagen and induced them with purified Sonic Hh N-terminal peptide ShbN^21 as described^3. Methyl-β-cyclodextrin was added to the chick explant cultures 4 h after induction with ShhN was initiated.
# It was further investigated whether SSH signaling in embryonic tissues by exposing chick neural-plate explants to recombinant Shh protein (ShhN, 30 nm) in the presence of cyclodextrin (FIG. 2b). FIG. 2b provides confocal microscope images of stage 9-10 chick embryo ectoderm dissected from a region of the neural plate intermediate to the notochord and roof plate and just rostral to Hensen's node. Explants were cultured for 48 h in collagen and stained for HNF3β or lSL1, as indicated.
# [4] = tested on: Hh pathway downstream of Ptch; test: Constitutive Hh pathway activity in Ptch−/− MEFs (β-galactosidase); assay type: cell-based, mouse; conditions: transient treatment with increasing concentrations of cyclodextrin in combination with compactin
# Procedure: as §1, with “We carried out cyclodextrin treatments for 30 min with methyl-β-cyclodextrin (Sigma) dissolved in Dulbecco's modified Eagle medium, preceded and followed by two washes with phosphate-buffered saline. Fetal bovine serum was depleted of lipids as described^23. We purchased compactin as an active sodium salt form of mevastatin (Biomol) and dissolved it in dimethylsulfoxide.” left out
# [5] = molecular target: T1, Smo (Mus musculus, UniProt P56726); test: Shh pathway activation by overexpression of wild-type Smo in NIH3T3 cells; assay type: cell-based; conditions: cholesterol depletion by cyclodextrin and compactin treatments
# T1 construct: expressed in transfected cells
# Procedure: as §1, with “We carried out cyclodextrin treatments for 30 min with methyl-β-cyclodextrin (Sigma) dissolved in Dulbecco's modified Eagle medium, preceded and followed by two washes with phosphate-buffered saline. Fetal bovine serum was depleted of lipids as described^23. We purchased compactin as an active sodium salt form of mevastatin (Biomol) and dissolved it in dimethylsulfoxide.” left out
# [6] = tested on: neural-crest cells; test: BMP-induced migration of neural-crest cells from dorsal neural plate explants; assay type: cell-based, chick; conditions: 400 μM cyclodextrin alone, 48 h of culture
# Procedure: as §3
# Dorsal neural plate progenitor cells and an endogenous source of BMP, the adjacent epidermal ectoderm, were dissected from a region just rostral to Hensen's node in stage 9-10 chick embryos.
# [7] = tested on: Shh autoprocessing; test: Analysis of Shh protein biogenesis (autoprocessing) in MEFs; assay type: cell-based, mouse; conditions: Dhcr7−/− or Sc5d−/− MEFs; transient (30 min, 3.8 mM) cyclodextrin treatment, lipid-depleted serum
# Procedure: Analysis of Shh protein biogenesis. MEFs were plated in a 10-cm^2 dish (Falcon) and transfected them (Fugene 6, Roche) with a full length Shh expression construct (pRK5-Shh, 5 μg) when the cells were roughly 75% confluent. The next day, we changed the culture medium (Dulbecco's modified Eagle medium with 10% fetal bovine serum) to contain either 0.5% fetal bovine serum, 0.5% lipid-depleted serum or lipid-depleted serum after a 30-min treatment with 3.8 mM methyl-β-cyclodextrin (Sigma). After an additional 24 h in culture, we lysed the MEFs in RIPA buffer (50 mM Tris-C1, pH 7.5, 150 mM NaCl, 1% Nonidet P-40, 0.5% sodium deoxycholate, 1 mM EDTA, 1 μg ml^−1 leupeptin, 1 μg ml aprotinin^−1, 0.2 mM phenylmethylsulfonyl fluoride), immunoprecipitated Shh protein from the cell lysates with a monoclonal antibody that recognizes the N-terminal signaling domain (5E1, Developmental Studies Hybridoma Bank) and immunoblotted them with a polyclonal antibody preparation (JH134). […]
# [8] = tested on: chick embryos; test: Cyclodextrin treatment of chick embryos in ovo, facial features by scanning electron microscopy; assay type: in vivo; conditions: 375 μM cyclodextrin in ovo, applied after 15 h of incubation, early-primitive-streak stage, embryonic day 5
# Procedure: as §3
# To determine how cholesterol may affect Hh signaling in embryonic development, chick embryos were exposed to cyclodextrin, a cyclic oligosaccharide that forms non-covalent complexes with sterols and can be used to extract and deplete cholesterol from living cells. […] The most severely affected embryos developed a proboscis-like structure that phenocopies the nasal rudiments of mouse embryos that are homozygous with respect to mutations in the gene Sonic hedgehog (Shh; ref. 8).
# FIG. 2a provides scanning electron micrographs of facial features at embryonic day 5 of a control (control) chick embryo and of embryos exposed to 375 μM cyclodextrin (CD). […]
# [9] = tested on: Dhcr7−/− and Sc5d−/− MEFs; test: Sterol analysis of MEFs cultured in parallel with signaling assays; assay type: cell-based, mouse; conditions: lipid-depleted serum
# Procedure: Sterol analysis. Neutral sterols were extracted and analyzed as described^24 from replicate wells of MEFs cultured in parallel with those used for signaling assays.
# as §2
# [10] = molecular target: T2, SmoA1 (Mus musculus, UniProt P56726, W539L); test: Shh pathway activity driven by oncogenic Smo (SmoA1, W539L) in NIH3T3 cells; assay type: cell-based; conditions: cholesterol depletion by cyclodextrin and compactin treatments
# T2 construct: expressed in transfected cells
# Procedure: as §1, with “We carried out cyclodextrin treatments for 30 min with methyl-β-cyclodextrin (Sigma) dissolved in Dulbecco's modified Eagle medium, preceded and followed by two washes with phosphate-buffered saline. Fetal bovine serum was depleted of lipids as described^23. We purchased compactin as an active sodium salt form of mevastatin (Biomol) and dissolved it in dimethylsulfoxide.” left out
# [11] = tested on: Hh pathway; test: Response of cells to ShhNp protein under sterol-specific perturbations (data not shown); assay type: cell-based
# Source text: Cyclodextrins form complexes with hydrophobic compounds including proteins and phospholipids in addition to sterols^6.
# [12] = 400 μM cyclodextrin, 30 nM ShhN, 48 h
# T1 sequence (P56726 33-793): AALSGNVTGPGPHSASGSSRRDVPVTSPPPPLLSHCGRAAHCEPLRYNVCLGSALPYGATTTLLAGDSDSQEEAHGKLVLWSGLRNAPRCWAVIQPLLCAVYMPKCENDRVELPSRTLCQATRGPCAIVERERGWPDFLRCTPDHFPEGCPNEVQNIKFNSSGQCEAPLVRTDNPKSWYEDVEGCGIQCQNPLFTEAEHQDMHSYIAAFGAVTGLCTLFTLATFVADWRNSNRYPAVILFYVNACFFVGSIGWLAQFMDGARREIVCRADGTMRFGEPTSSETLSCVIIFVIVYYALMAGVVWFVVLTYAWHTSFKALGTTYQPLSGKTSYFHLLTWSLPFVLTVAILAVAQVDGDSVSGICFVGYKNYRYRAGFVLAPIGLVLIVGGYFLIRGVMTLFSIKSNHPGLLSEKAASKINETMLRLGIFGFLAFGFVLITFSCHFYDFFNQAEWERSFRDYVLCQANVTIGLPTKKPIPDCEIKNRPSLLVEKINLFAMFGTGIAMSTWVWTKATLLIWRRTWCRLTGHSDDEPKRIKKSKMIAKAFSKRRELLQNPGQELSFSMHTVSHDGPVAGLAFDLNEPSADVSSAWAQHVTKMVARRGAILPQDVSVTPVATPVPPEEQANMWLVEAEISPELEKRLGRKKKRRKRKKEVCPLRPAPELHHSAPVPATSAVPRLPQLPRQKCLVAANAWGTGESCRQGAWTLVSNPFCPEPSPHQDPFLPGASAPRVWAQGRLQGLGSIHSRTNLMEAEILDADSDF
# T2 sequence (P56726 33-793 W539L): as the sequence (P56726 33-793) above, with W507L counted along it
compound,measurement,setting,value
CC[C@H](C)C(=O)O[C@H]1CCC=C2C=C[C@H](C)[C@H](CC[C@@H]3C[C@@H](O)CC(=O)O3)[C@H]21 [compactin],ShhNp response under compactin alone,[1]; continuous exposure to compactin,not affected
Methyl-β-cyclodextrin,ability to respond to Shh signal,"[2]; Dhcr7 and Sc5d mutant MEFs, transient 30-min cyclodextrin, lipid-depleted medium, ShhNp 10 nM",clear deficiencies in their ability to respond to Shh signal
same,response to ShhNp stimulation,"[2]; cells heterozygous for Dhcr7 and Sc5d mutations, all growth conditions incl. transient cyclodextrin",normal response
same,HNF3β and lSL1 marker expression,"[3]; 200 μM cyclodextrin, 30 nM ShhN, 48 h",both HNF3μ and lSL1 were expressed
same,high-threshold response to ShhN (HNF3β),[3]; [12],blocked
same,"lSL1 expression (intermediate-threshold response, motor-neuron fate)",[3]; [12],substantially uniform expression of lSL1
same,differentiation of neural plate explant cells as motor neurons,[3]; 400 μM β-methyl CD in conjunction with 30 nM ShhN,all cells
same,cellular response to Shh protein (FIG. 2b),"[3]; cyclodextrin treatment, concentration not given in legend",inhibited the cellular response to Shh protein
same,constitutive Hh pathway activity in Ptch−/− fibroblasts,[4],dose-dependent reduction
same,constitutive Hh pathway activity in Ptch−/− fibroblasts,[4]; listed as Cyclodextrin,blocked
same,Shh pathway activation by overexpressed wild-type Smo,[5],inhibited
same,BMP-induced migration of neural-crest cells,[6],did not inhibit
same,Shh autoprocessing,[7],no observable effect
same,developmental malformation of facial and midline structures,[8],variable loss of midline tissues
same,developmental malformation of facial and midline structures,[8]; listed as Cyclodextrin,variable loss of the frontonasal process and other midline structures; also recorded: holoprosencephaly
same,"sterol levels after initial transient cyclodextrin treatment, needed to affect pathway response",[9],below 40 μg mg^−1 protein
same,inhibition of Shh signal response,[1]; continuous treatment with 500 μM cyclodextrin,about 50%
same,inhibition of Shh signal response,[1]; continuous treatment with 2 mM cyclodextrin,nearly complete inhibition
same,response to Shh signaling under chronic cyclodextrin,"[1]; cyclodextrin in culture medium for the duration of ShhNp induction, comparable to 5 μM cyclopamine",dose dependent manner; also recorded: inhibited
same,"Shh signal response, transient cyclodextrin combined with continuous compactin","[1]; transient cyclodextrin before ShhNp induction, then compactin during induction",blocked; also recorded: inhibited
same,persistence of Hh pathway inhibition after cyclodextrin treatment,"[1]; transient cyclodextrin, sterol depletion maintained with compactin",72 h
same,ShhNp response after transient cyclodextrin alone,"[1]; transient treatment for 30 minutes before ShhNp, even at 15 mM cyclodextrin",did not affect response
same,Shh pathway activity driven by SmoA1,[10],resistant to inhibition
CCCCC[C@@H](O)[C@H]1C(=O)O[C@H](C)[C@@H](O)/C=C/C=C/C=C/C=C/C=C(\C)[C@@H](O)C[C@H](O)C[C@H](O)C[C@H](O)C[C@H](O)C[C@H](O)C[C@@H]1O [filipin],response of cells to ShhNp protein,[11],blocked
C[C@@H]1[C@H](O)[C@@H](C)/C=C/C=C/CC/C=C/C=C/C=C/C=C/C(O[C@H]2O[C@H](C)[C@@H](O)[C@H](N)[C@@H]2O)CC2O[C@](O)(CC(O)C(O)CCC(O)CC(O)CC(O)CC(=O)O[C@H]1C)CC(O)C2C(=O)O (stereo partly shown) [nystatin],response of cells to ShhNp protein,[11],blocked

# Reference: patent US20070053883A1, “Neuronal cell lineages and methods of production thereof” (THE JOHNS HOPKINS UNIVERSITY, priority 2003, published 2007)
